Data from patent US10676429B2, “Sulfamoyl-arylamides and the use thereof as medicaments for the treatment of hepatitis B” (priority 2012, dated 2020).

Columns and labels:
[1] = Cytotoxicity in HepG2 cells, 4 days, Resazurin assay; details: human, HepG2 cells
HBV [2] = test: Anti-HBV activity in stable transfected HepG2.2.15 cell line (HBV DNA from secreted virions, realtime PCR); assay type: cell-based; details: Hepatitis B virus, HepG2.2.15, 144 h, HepG2.2.15 cells, 6 days of treatment, secreted virion HBV DNA; read-out: HepG2 2.15 EC50
HepG2 cells = test: Cytotoxicity in HepG2 cells using CellTiter-Blue (6 days); details: read-out: HepG2 6 days CC50, 6 days, CellTiter-Blue
HBV [3] = test: Anti-HBV activity in HepG2.117 cell line (Tet-off, intracellular HBV DNA, realtime PCR); assay type: cell-based; details: Hepatitis B virus, HepG2.117, 72 h, HepG2.117 cells, 3 days of treatment, intracellular HBV DNA; read-out: HepG2 117 EC50

**Q.** With O=C(Nc1ccc(F)cc1)c1ccc(Cl)c(S(=O)(=O)N2CCCCCC2)c1 [Compound 23] as the compound, how does the CC50 at 4 days [1] read?
**A.** The CC50 at 4 days was 19.6 µM.

**Q.** And the EC50 (HBV [2])?
**A.** Its EC50 is 0.66 µM.

**Q.** And the CC50 (HepG2 cells)?
**A.** Its CC50 is 17 µM.

**Q.** What about the EC50 (HBV [3]) of the same compound?
**A.** The EC50 was 1.3 µM.
